Consider 15 molecules from ChEMBL document CHEMBL3991601, “The target landscape of clinical kinase drugs” (Science, 2017).

Active and inactive are the calls of the source. A value given as a limit tells only on which side of the number the result lay.

Test [1] has as its target Activin receptor type-2B (Homo sapiens, UniProt Q13705).
Test [2] has as its target T1, AarF domain-containing protein kinase 1 (Homo sapiens, UniProt Q86TW2).
T1 sequence (Q86TW2 whole entry): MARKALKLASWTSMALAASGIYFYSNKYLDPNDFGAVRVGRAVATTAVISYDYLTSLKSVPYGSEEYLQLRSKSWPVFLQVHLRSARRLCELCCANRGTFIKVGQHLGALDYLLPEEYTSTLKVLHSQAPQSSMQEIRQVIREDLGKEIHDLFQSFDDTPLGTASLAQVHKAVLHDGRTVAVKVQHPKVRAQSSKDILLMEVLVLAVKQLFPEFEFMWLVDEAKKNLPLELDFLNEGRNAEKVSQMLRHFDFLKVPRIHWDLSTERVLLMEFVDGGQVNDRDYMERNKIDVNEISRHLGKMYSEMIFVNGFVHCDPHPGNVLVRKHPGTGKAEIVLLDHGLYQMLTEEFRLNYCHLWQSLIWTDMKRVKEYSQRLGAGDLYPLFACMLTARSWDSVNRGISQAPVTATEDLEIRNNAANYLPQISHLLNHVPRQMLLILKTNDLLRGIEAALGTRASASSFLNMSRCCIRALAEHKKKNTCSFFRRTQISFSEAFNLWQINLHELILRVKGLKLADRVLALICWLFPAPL

In test [3] the target is Tyrosine-protein kinase FRK (Homo sapiens, UniProt P42685).
In test [4] the target is GTP-binding protein 4 (Homo sapiens, UniProt Q9BZE4).
In test [5] the target is T2, MAP kinase-activated protein kinase 5 (Homo sapiens, UniProt Q8IW41).
T2 sequence (Q8IW41 whole entry): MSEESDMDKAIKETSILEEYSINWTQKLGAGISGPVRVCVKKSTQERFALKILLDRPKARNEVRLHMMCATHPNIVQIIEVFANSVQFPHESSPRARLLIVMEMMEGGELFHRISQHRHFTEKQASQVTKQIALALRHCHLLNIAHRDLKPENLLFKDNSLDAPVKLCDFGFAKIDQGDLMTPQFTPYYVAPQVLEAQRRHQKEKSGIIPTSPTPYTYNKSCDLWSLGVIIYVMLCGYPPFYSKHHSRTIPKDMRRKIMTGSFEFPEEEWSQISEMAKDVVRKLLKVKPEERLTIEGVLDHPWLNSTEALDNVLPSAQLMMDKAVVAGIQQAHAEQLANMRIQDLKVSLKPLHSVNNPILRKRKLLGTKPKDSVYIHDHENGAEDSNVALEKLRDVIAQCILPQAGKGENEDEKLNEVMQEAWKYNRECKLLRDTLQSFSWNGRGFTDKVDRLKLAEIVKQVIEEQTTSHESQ

Test [6] deals with T3, Bifunctional phosphoribosylaminoimidazole carboxylase/phosphoribosylaminoimidazole succinocarboxamide synthetase (Homo sapiens, UniProt P22234).
T3 sequence (P22234 whole entry): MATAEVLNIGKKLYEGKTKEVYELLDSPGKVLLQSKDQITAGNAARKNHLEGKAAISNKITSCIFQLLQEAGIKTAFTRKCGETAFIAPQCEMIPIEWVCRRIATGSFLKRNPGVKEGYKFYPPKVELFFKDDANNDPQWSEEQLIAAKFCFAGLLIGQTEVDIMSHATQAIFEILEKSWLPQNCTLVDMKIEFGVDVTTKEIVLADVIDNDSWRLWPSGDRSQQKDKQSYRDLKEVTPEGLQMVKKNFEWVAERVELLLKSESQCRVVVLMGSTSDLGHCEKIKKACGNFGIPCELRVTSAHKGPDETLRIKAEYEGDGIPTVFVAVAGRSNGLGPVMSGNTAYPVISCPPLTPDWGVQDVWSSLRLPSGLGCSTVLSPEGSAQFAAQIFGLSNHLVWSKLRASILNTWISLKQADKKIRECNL

The target in test [7] is Protein kinase C alpha type (Homo sapiens, UniProt P17252).
For test [8], the target named is T4, Ras-related protein Rab-10 (Homo sapiens, UniProt P61026).
T4 sequence (P61026 whole entry): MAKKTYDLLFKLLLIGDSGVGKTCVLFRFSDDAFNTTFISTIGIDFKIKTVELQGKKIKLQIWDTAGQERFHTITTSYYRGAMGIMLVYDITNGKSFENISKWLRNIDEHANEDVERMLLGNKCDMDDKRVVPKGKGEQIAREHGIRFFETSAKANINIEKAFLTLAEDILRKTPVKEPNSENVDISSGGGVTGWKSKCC

The target of test [9] is T5, Mitogen-activated protein kinase kinase kinase 2 (Homo sapiens, UniProt Q9Y2U5).
T5 sequence (Q9Y2U5 whole entry): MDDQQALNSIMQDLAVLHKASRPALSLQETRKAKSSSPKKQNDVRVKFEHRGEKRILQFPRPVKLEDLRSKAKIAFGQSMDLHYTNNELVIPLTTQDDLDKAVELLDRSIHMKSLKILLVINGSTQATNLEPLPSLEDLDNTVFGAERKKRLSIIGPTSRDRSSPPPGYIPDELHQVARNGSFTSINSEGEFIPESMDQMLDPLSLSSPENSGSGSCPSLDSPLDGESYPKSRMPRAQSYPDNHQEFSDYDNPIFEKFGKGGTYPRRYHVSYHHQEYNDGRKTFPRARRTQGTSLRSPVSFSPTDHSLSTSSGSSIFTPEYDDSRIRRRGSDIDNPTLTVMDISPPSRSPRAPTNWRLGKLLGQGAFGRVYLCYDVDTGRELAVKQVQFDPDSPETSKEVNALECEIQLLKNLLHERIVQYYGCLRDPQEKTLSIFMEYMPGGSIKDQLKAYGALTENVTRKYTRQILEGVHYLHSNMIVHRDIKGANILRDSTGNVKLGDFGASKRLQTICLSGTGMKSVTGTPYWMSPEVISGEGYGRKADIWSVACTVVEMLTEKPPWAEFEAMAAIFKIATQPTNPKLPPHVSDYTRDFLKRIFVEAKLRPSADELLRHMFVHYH

Broadly, the Kd is a measure of binding affinity in units of concentration.
Also: in the data inactive means no Kd found up to 30 µM.

Sequence of Activin receptor type-2B (Q13705 whole entry, the tested form may be a part): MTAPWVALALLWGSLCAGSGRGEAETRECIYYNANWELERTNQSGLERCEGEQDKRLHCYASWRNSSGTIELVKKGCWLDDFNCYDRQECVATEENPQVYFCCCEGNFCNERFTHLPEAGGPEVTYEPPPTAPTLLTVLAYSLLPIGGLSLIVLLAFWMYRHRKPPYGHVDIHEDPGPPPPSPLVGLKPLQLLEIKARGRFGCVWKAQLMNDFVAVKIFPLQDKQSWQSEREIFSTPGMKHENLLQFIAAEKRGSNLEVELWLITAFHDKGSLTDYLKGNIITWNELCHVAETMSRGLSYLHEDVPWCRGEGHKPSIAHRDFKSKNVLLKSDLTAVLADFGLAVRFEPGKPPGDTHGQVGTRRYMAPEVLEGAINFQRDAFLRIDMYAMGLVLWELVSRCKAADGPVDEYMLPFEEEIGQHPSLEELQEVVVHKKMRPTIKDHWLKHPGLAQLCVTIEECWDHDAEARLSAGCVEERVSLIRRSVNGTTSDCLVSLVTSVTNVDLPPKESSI
Sequence of Tyrosine-protein kinase FRK (P42685 whole entry): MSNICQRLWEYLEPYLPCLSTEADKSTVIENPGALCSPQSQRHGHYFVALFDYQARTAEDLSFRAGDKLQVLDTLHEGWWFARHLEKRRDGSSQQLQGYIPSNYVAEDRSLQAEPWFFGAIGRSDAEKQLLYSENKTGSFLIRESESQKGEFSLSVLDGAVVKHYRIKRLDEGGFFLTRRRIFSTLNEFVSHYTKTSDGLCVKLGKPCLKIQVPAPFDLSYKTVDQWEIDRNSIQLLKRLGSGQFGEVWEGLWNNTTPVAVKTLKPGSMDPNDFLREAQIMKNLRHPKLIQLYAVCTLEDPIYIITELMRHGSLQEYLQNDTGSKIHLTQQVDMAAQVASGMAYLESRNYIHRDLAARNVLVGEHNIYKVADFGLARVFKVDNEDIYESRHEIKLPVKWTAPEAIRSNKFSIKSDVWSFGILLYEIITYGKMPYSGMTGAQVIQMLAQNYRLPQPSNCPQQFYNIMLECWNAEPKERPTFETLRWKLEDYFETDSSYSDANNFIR

As to `COc1cc2nccc(Oc3ccc(NC(=O)NC4CC4)c(Cl)c3)c2cc1C(N)=O` [LENVATINIB], the Kd in [1], in [2], in [3], in test [4], in test [5] and in test [6] was > 30 µM (inactive) in each case. In addition, the Kd in test [7] and in test [8] was > 30 µM (inactive) each time.
For `CO[C@H]1C[C@@H]2CC[C@@H](C)[C@@](O)(O2)C(=O)C(=O)N2CCCC[C@H]2C(=O)O[C@H]([C@H](C)C[C@@H]2CC[C@@H](OCCO)[C@H](OC)C2)CC(=O)[C@H](C)/C=C(\C)[C@@H](O)[C@@H](OC)C(=O)[C@H](C)C[C@H](C)/C=C/C=C/C=C/1C` [EVEROLIMUS], the Kd in test [1], in test [2], in [3], in [4], in [9] and in test [6] was > 30 µM (inactive) in each case. Besides, the Kd in test [7] and in test [8] was > 30 µM (inactive) each time.
Turning to `O=C(Nc1cccc(Cl)c1)Nc1ncc(CCNc2ncnc3ccsc23)s1` [SNS-314], the Kd in test [1], in [2], in [4], in [9], in test [6] and in [7] was > 30 µM (inactive) throughout. In addition, the Kd in test [8] is > 30 µM (inactive).
As for `Cc1cn(-c2cc(NC(=O)c3ccc(C)c(Nc4nccc(-c5cccnc5)n4)c3)cc(C(F)(F)F)c2)cn1` [NILOTINIB], the Kd in [2], in [4], in [6], in test [7] and in test [8] was > 30 µM (inactive) throughout.
`Nc1nc(N)c2nc(-c3cccc(O)c3)c(-c3cccc(O)c3)nc2n1` [TG100-115]: the Kd in test [2], in test [4], in test [6], in test [7] and in [8] was > 30 µM (inactive) in each case.
On to `CN1CCN(c2ccc3nc(-c4c(N)c5c(F)cccc5[nH]c4=O)[nH]c3c2)CC1` [DOVITINIB], for which the Kd in test [2], in test [4], in [6], in test [7] and in [8] was > 30 µM (inactive) each time.
Consider `Cc1cc(Nc2cc(N3CCN(C)CC3)nc(/C=C/c3ccccc3)n2)n[nH]1` [ENMD-2076], for which the Kd in test [1], in [2], in test [4], in test [6], in test [7] and in test [8] was > 30 µM (inactive) each time.
Regarding `Cc1nc(N)sc1-c1ccnc(Nc2ccc(N3CCOCC3)cc2)n1` [CYC-116], the Kd in test [1] was > 30 µM (inactive); in [2], 0.545 µM (active); in test [4] it was > 30 µM (inactive); in test [9] it was > 30 µM (inactive); in test [6], > 30 µM (inactive); in test [7], > 30 µM (inactive). Further, the Kd in [8] was > 30 µM (inactive).
Consider `C[C@@H](Nc1cc(F)cc(F)c1)c1cc(C(=O)N(C)C)cc2c(=O)cc(N3CCOCC3)oc12` [AZD-8186], for which the Kd in test [1], in test [2], in test [3], in [9], in [5] and in test [6] was > 30 µM (inactive) in each case. For the same molecule, the Kd in test [7] and in test [8] was > 30 µM (inactive) each time.
`CCn1c(-c2nonc2N)nc2c(C#CC(C)(C)O)ncc(OC[C@H]3CCCNC3)c21` [GSK-690693]: the Kd in [2] was > 30 µM (inactive); in [6] it was > 30 µM (inactive); in test [7] it was 0.566 µM (active); in test [8], > 30 µM (inactive).
For `COc1cc2nccc(Oc3ccc(NC(=O)Nc4cc(C)on4)c(Cl)c3)c2cc1OC` [TIVOZANIB], the Kd in test [1], in test [2], in test [4], in test [9], in test [6] and in [7] was > 30 µM (inactive) in each case. Further, in test [8], the Kd was > 30 µM (inactive).
`Cc1cc2c(F)c(Oc3ncnn4cc(OC[C@@H](C)OC(=O)[C@H](C)N)c(C)c34)ccc2[nH]1` [BRIVANIB ALANINATE]: the Kd in test [1], in [2], in [3], in [4], in test [9] and in test [6] was > 30 µM (inactive) in each case. For the same molecule, the Kd in test [7] and in [8] was > 30 µM (inactive) in each case.
Regarding `Cc1ccc(S(=O)(=O)Nc2nc3ccccc3nc2Nc2ccc3nsnc3c2)cc1`, the Kd in [2], in test [3], in test [4], in test [9], in [5] and in [6] was > 30 µM (inactive) in each case. Also, the Kd in test [7] and in test [8] was > 30 µM (inactive) throughout.
For `CN(C)C(=O)c1cc2cnc(Nc3ccc(N4CCNCC4)cn3)nc2n1C1CCCC1` [RIBOCICLIB], the Kd in [1], in test [2], in [3], in test [4], in test [9] and in [6] was > 30 µM (inactive) throughout. In addition, the Kd in [7] and in test [8] was > 30 µM (inactive) each time.
Regarding `COCCNCc1ccc(-c2cc3nccc(Oc4ccc(NC(=S)NC(=O)Cc5ccc(F)cc5)cc4F)c3s2)nc1` [GLESATINIB], the Kd in test [1] is > 30 µM (inactive); in test [2] it was > 30 µM (inactive); in test [3] it was 1.1 µM (active); in test [4] it was > 30 µM (inactive); in test [9], > 30 µM (inactive); in test [6] it was > 30 µM (inactive). In addition, the Kd in test [7] and in test [8] was > 30 µM (inactive) in each case.
